The EC50 is the concentration that produces a half-maximal response. By Ki is commonly meant the equilibrium dissociation constant of an inhibitor or competing ligand from its target.

We go through 3 compounds from US8614202B2, “2α-methyl and 2β-methyl analogs of 19,26,27-trinor-(20S)-1α-hydroxyvitamin D3 and their uses” (Wisconsin Alumni Research Foundation, priority 2004, dated 2013).

Experiment [1] relates to 24-hydroxylase (24Ohase) gene promoter in ROS 17/2.8 (bone) cells. Briefly: In vitro transcription assay (24-hydroxylase promoter luciferase reporter). Type of experiment: cell-based. Conditions: ROS 17/2.8 cells, 24Ohase-luciferase, sixteen hours after dosing; read-out: EC50, transcriptional activity in bone cells. As for the experimental part:
In Vitro Transcription Assay
Transcription activity was measured in ROS 17/2.8 (bone) cells that were stably transfected with a 24-hydroxylase (24Ohase) gene promoter upstream of a luciferase reporter gene (Arbour et al., 1998). Cells were given a range of doses. Sixteen hours after dosing the cells were harvested and luciferase activities were measured using a luminometer. • RLU=relative luciferase units. Intestinal Calcium Transport and Bone Calcium Mobilization
In general terms: Reporter assays use an easily measured gene product as a stand-in for the process of interest.

The target of experiment [2] is T1, full-length recombinant rat vitamin D receptor (Rattus norvegicus, UniProt P13053).
T1 construct: Full-length recombinant rat receptor was expressed in E. coli BL21 (DE3) Codon Plus RIL cells; histidine tag (C); made in house; host or cells: E. coli BL21 (DE3) Codon Plus RIL
T1 sequence (P13053 1-423): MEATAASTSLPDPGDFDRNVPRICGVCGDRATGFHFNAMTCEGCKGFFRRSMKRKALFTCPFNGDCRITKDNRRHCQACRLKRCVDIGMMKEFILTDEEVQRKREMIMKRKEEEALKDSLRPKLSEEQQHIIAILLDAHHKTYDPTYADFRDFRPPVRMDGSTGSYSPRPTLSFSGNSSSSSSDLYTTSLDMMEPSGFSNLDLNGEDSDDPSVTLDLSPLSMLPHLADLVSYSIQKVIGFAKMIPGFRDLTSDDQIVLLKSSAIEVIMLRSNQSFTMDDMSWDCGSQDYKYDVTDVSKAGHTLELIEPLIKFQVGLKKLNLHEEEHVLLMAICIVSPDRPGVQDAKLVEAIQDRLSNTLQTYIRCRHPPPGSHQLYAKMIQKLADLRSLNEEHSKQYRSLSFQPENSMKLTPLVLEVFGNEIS
Briefly: Vitamin D receptor binding, competition with [3H]-1,25(OH)2D3. Conditions: full-length recombinant rat VDR; 1 nM radioligand. The text has this: Vitamin D Receptor Binding
Full-length recombinant rat receptor was expressed in E. coli BL21 (DE3) Codon Plus RIL cells and purified to homogeneity using two different column chromatography systems. The first system was a nickel affinity resin that utilizes the C-terminal histidine tag on this protein. The protein that was eluted from this resin was further purified using ion exchange chromatography (S-Sepharose Fast Flow). Aliquots of the purified protein were quick frozen in liquid nitrogen and stored at −80° C. until use. For use in binding assays, the protein was diluted in TEDK50 (50 mM Tris, 1.5 mM EDTA, pH7.4, 5 mM DTT, 150 mM KCl) with 0.1% Chaps detergent. The receptor protein and ligand concentration were optimized such that no more than 20% of the added radiolabeled ligand was bound to the receptor.
Radiolabeled and unlabeled ligands were added to 100 mcl of the diluted protein at a final ethanol concentration of ≦10%, mixed and incubated overnight on ice to reach binding equilibrium. The following day, 100 mcl of hydroxylapatite slurry (50%) was added to each tube and mixed at 10-minute intervals for 30 minutes. The hydroxylapaptite was collected by centrifugation and then washed three times with Tris-EDTA buffer (50 mM Tris, 1.5 mM EDTA, pH 7.4) containing 0.5% Titron X-100. […] Total binding was determined from the tubes containing only radiolabeled ligand.

Experiment [3] relates to Human promyelocytic leukemia (HL60) cells. Briefly: HL-60 differentiation (nitro blue tetrazolium reduction). Type of experiment: cell-based. The following applies: four days after treatment. As to the method:
The study drugs were dissolved in ethanol and the concentrations determined using UV spectrophotometry. Serial dilutions were prepared so that a range of drug concentrations could be tested without changing the final concentration of ethanol (≦0.2%) present in the cell cultures.
Human promyelocytic leukemia (HL60) cells were grown in RPMI-1640 medium containing 10% fetal bovine serum. The cells were incubated at 37° C. in the presence of 5% CO2.
HL60 cells were plated at 1.2×10^5 cells/ml. Eighteen hours after plating, cells in duplicate were treated with drug. Four days later, the cells were harvested and a nitro blue tetrazolium reduction assay was performed (Collins et al., 1979; J. Exp. Med. 149:969-974). The percentage of differentiated cells was determined by counting a total of 200 cells and recording the number that contained intracellular black-blue formazan deposits. Verification of differentiation to monocytic cells was determined by measuring phagocytic activity (data not shown).

The nature of experiment [4]: Bone calcium mobilization (serum calcium) in vitamin D-deficient rats. The experiment is classed as in vivo, Sprague-Dawley rats. As for the experimental part: Male, weanling Sprague-Dawley rats were placed on Diet 11 (0.47% Ca) diet+AEK for one week followed by Diet 11 (0.02% Ca)+AEK for 3 weeks. The rats were then switched to a diet containing 0.47% Ca for one week followed by two weeks on a diet containing 0.02% Ca. Dose administration began during the last week on 0.02% calcium diet. Four consecutive ip doses were given approximately 24 hours apart. Twenty-four hours after the last dose, blood was collected from the severed neck and the concentration of serum calcium determined as a measure of bone calcium mobilization. The first 10 cm of the intestine was also collected for intestinal calcium transport analysis using the everted gut sac method.
Calcium mobilization from bone in vitamin D-deficient animals.

Where [5] appears, read: low calcium diet (0.02%), four consecutive ip doses, overall / all dosages.

`CCCCC(C)C1CCC2C(=CC=C3CC(O)C(C)C(O)C3)CCCC21C` (single isomer, unassigned) [C-19]: the concentration giving a half-maximal response (EC50) in experiment [1] worked out at 0.01 µM; in experiment [3] it was 0.0082 µM. The inhibition constant (Ki) in experiment [2] was 0.00022 µM. Also, the “calcium mobilization from bone (serum calcium)” value in experiment [4] (0.02% Ca diet, 780 pmol/day for 4 consecutive days) is reported as “did not result in mobilization of bone calcium”; in experiment [4] (0.02% Ca diet, 2340 pmol/day) it was “without any substantial effect”; in experiment [4] (0.02% Ca diet, 7020 pmol/day) it was “without any substantial effect”; in experiment [4] (setting [5]) it was “little, if any, activity in mobilizing calcium from bone”.

In the case of `CCCCC(C)C1CCC2C(=CC=C3CC(O)C(C)C(O)C3)CCCC21C` (single isomer, unassigned) [N-16], the concentration giving a half-maximal response (EC50) in experiment [1] and in experiment [3] was 0.1 µM each time. Moreover, the Ki in experiment [2] was determined as 0.01 µM.

In the case of `C=C1/C(=C\C=C2/CCC[C@]3(C)[C@@H]([C@H](C)CCCC(C)(C)O)CC[C@@H]23)C[C@@H](O)C[C@@H]1O` [1,25(OH)2D3, 1α,25-dihydroxyvitamin D3, reference compound], the midpoint of the response in experiment [3], the EC50, lay at 0.0029 µM. The “calcium mobilization from bone (serum calcium)” value in experiment [4] (setting [5]) was “increased serum calcium levels at all dosages”.
